The data set in a line: in vitro. As to conditions: human, hela cells, % viability.
In general, viability refers to a read-out of living cells in per cent, often relative to untreated cells. For the compound `Cc1cc(C(=O)N2CCN(C)CC2)ccc1-c1cnc(N)c(-c2ccc(O)cc2)n1` [CBK126749], the viability at 28.5 h, 10 µM stood at 94.8%.
For `O=S(=O)(CCN1CCC2(CC1)CN(CCO)c1ccccc12)c1ccccc1` [CBK126758], the viability at 28.5 h, 10 µM worked out at 102%.
With `OCCN1CCC2(CC1)CN(CCO)c1ccccc12` [CBK126759] the figure was 87.4%; with `O=C(CN1CCC2(CC1)CN(CCO)c1ccccc12)Nc1ccc(F)c(Cl)c1` [CBK126761], 94.6%.
For `OCCN1CC2(CCN(CCC(c3ccccc3)c3ccccc3)CC2)c2ccccc21` [CBK126765] the value was 88.9%.
As to `COc1cc(CN2CCC3(CC2)CN(CC(N)=O)c2ccccc23)cc(OC)c1OC` [CBK126774], the viability at 28.5 h, 10 µM worked out at 93.1%.
For `NC(=O)CN1CC2(CCN(Cc3ccc(Cl)c(Cl)c3)CC2)c2ccccc21` [CBK126775] the value was 109%; for `NC(=O)CN1CC2(CCN(CCS(=O)(=O)c3ccccc3)CC2)c2ccccc21` [CBK126786], 103%; for `NC(=O)CN1CC2(CCN(CCCn3c(=O)[nH]c4ccccc43)CC2)c2ccccc21` [CBK126787], 89.6%.
With `NC(=O)CN1CC2(CCN(CC(=O)Nc3ccc(F)c(Cl)c3)CC2)c2ccccc21` [CBK126790] the figure was 99.2%.
For `NC(=O)CN1CC2(CCN(CCCCC3NC(=O)NC3=O)CC2)c2ccccc21` (stereo not shown) [CBK126799] the value was 95.9%.
Turning to `CSCCN1CCC2(CC1)CN(CC(N)=O)c1ccccc12` [CBK126801], the viability at 28.5 h, 10 µM amounted to 92.9%.
With `COc1ccc(OC)c(-c2nc(Nc3ccccc3C)sc2CC(=O)O)c1` [CBK126811] the figure was 101%.
With `CC(=O)Nc1sc2c(c1C(=O)O)CCc1ccccc1-2` [CBK126812], the viability at 28.5 h, 10 µM was 96.9%.
With `Cc1cc(C(=O)O)c(NC(=O)c2cccc(Cl)c2)s1` [CBK126813] the figure was 100%; with `O=C(CSCc1ccccc1)Nc1ccc(O)cc1C(=O)O` [CBK126817], 103%; with `CCC(=O)Nc1ccc(O)cc1C(=O)O` [CBK126818], 92.8%.
Regarding `C=CCn1c(SCC(=O)Nc2ccc(OC)cc2)nnc1-c1ccncc1` [CBK126824], the viability at 28.5 h, 10 µM was found to be 88.9%.
As for `CCOCCCNC(=O)/C(=C/c1cccnc1)NC(=O)c1ccccc1` [CBK126866], the viability at 28.5 h, 10 µM came out at 90.8%.
With `Cc1cc(N2CCOCC2)c2c(N)c(C)cc(C)c2n1` [CBK126908] the figure was 83.8%; with `CCCN1CCc2c(sc3nc(SCC(=O)OC)nc(N)c23)C1` [CBK126911], 96.6%; with `O=C(CSCc1ccc(Cl)cc1Cl)Nc1c[nH]c(=O)[nH]c1=O` [CBK126912], 90.4%.
As to `CCc1c(C)nc2ccc(Br)cc2c1SCCC(=O)O` [CBK126914], the viability at 28.5 h, 10 µM came out at 113%.
With `CCCCc1c(C)nc2c(OC)cccc2c1SCCC(=O)O` [CBK126917] the figure was 99.5%; with `O=C(O)CSc1cccc2cccnc12` [CBK126918], 95%; with `CN(C)CC(=O)N1CCN(c2cncc(-c3ccc(O)cc3)n2)CC1` [CBK126921T], 97.2%.
For `CN(C)CCN(C)C(=O)C1CCN(c2cncc(-c3ccc(O)cc3)n2)CC1` [CBK126928T], the viability at 28.5 h, 10 µM amounted to 88%.
With `COc1ccc(C(=O)NCCCN(C)C)cc1Nc1cncc(-c2ccc(O)cc2)n1` [CBK126938T] the figure was 95%.
With `O=C(N1CCCC1)N1CCN(c2cncc(-c3ccc(O)cc3)n2)CC1` [CBK126947T] the figure was 93.5%; with `COCCN1CCN(c2cncc(-c3ccc(O)cc3)n2)CC1` [CBK126951T], 93.6%; with `O=C(Cn1nnc(-c2ccc(CN3CCOCC3)cc2)n1)Nc1ccc(Br)cc1` [CBK127364], 94.1%.
For `CCn1c(SCC(=O)Nc2nc(C)c(C(=O)OC)s2)nc2c1c(=O)n(C)c(=O)n2C` [CBK127470] the value was 101%; for `Cn1c(=O)c2c(ncn2CC(=O)Nc2ccc(OCc3ccccc3)cc2)n(C)c1=O` [CBK130478], 89.8%.
Consider `O=C(Cc1ccc(Cl)c(Cl)c1)N1CCC2(CCN(C(=O)c3cc(F)c(F)cc3F)C2)C1` (stereo not shown) [CBK131386], for which the viability at 28.5 h, 10 µM came out at 95.9%.
For `N#Cc1cccc(C(=O)N2CCC3(CCN(C(=O)c4cc(F)c(F)cc4F)C3)C2)c1` (stereo not shown) [CBK131387] the value was 97.2%; for `CSCCC(=O)N1CCC2(CCN(C(=O)c3cc(F)c(F)cc3F)C2)C1` (stereo not shown) [CBK131397], 99.5%.
With `O=C(c1cncnc1)N1CCC2(CCN(C(=O)c3cc(F)c(F)cc3F)C2)C1` (stereo not shown) [CBK131405], the viability at 28.5 h, 10 µM was 94.8%.
Turning to `O=C(c1ccc2[nH]c(=O)[nH]c2c1)N1CCC2(CCN(C(=O)c3cc(F)c(F)cc3F)C2)C1` (stereo not shown) [CBK131407], the viability at 28.5 h, 10 µM was 95.9%.
For `O=C(Cc1c[nH]c2ccccc12)N1CCC2(CCN(C(=O)CC3CCCCC3)C2)C1` (stereo not shown) [CBK131422] the value was 88.3%; for `O=C(Cc1ccc(Cl)c(Cl)c1)N1CCC2(CCN(C(=O)Cc3c[nH]c4ccccc34)C2)C1` (stereo not shown) [CBK131426], 106%; for `O=C1NC(=O)C(CC(=O)N2CCC3(CCN(C(=O)Cc4c[nH]c5ccccc45)C3)C2)N1` (stereo not shown) [CBK131436], 92.8%.
For `CSCCC(=O)N1CCC2(CCN(C(=O)Cc3c[nH]c4ccccc34)C2)C1` (stereo not shown) [CBK131442] the value was 95.3%; for `Cc1ccc(S(=O)(=O)CC(=O)N2CCC3(CCN(C(=O)Cc4c[nH]c5ccccc45)C3)C2)cc1` (stereo not shown) [CBK131443], 84%; for `Cc1cn(CC(=O)N2CCC3(CCN(C(=O)Cc4c[nH]c5ccccc45)C3)C2)c(=O)[nH]c1=O` (stereo not shown) [CBK131445], 101%.
For `COc1cc(C(=O)N2CCC3(CCN(C(=O)Cc4c[nH]c5ccccc45)C3)C2)cc(OC)c1OC` (stereo not shown) [CBK131448] the value was 86.7%; for `CN1CCN(S(=O)(=O)c2ccc(-c3cnc(N)c(-c4ccc(O)cc4)n3)cc2F)CC1` [CBK131449], 93.9%; for `Cc1cc(-c2cncc(-c3ccc(O)cc3)n2)ccc1S(=O)(=O)N1CCOCC1` [CBK131460], 92.4%.
With `CCN1CC2(CCN(CC(N)=O)CC2)c2ccccc21` [CBK131485], the viability at 28.5 h, 10 µM was determined as 107%.
For `CCN1CC2(CCN(Cc3ncc[nH]3)CC2)c2ccccc21` [CBK131486] the value was 89.1%.
With `CCN1CC2(CCN(CCCCC3NC(=O)NC3=O)CC2)c2ccccc21` (stereo not shown) [CBK131489] the figure was 96%.
For `O=C(CO)N1CC2(CCN(Cc3ccc(Cl)c(Cl)c3)CC2)c2ccccc21` [CBK131495] the value was 89.5%; for `O=C(CO)N1CC2(CCN(Cc3ccc4ccccc4c3)CC2)c2ccccc21` [CBK131501], 88.7%; for `O=C(CO)N1CC2(CCN(CCO)CC2)c2ccccc21` [CBK131507], 79.7%.
Consider `O=C(CO)N1CC2(CCN(CCC(c3ccccc3)c3ccccc3)CC2)c2ccccc21` [CBK131513], for which the viability at 28.5 h, 10 µM amounted to 106%.
For `OCCN1CC2(CCN(Cc3ccc4ccccc4c3)CC2)c2ccccc21` [CBK131529] the value was 92.6%.

The record behind these values is PMC12040169 (PLOS Biology, 2025).
